Among the data in ChEMBL document CHEMBL1147569, “Synthesis and structure-activity relationships of (R)-1-alkyl-3-[2-(2-amino)phenethyl]-5-(2-fluorophenyl)-6-methyluracils as human GnRH receptor antagonists” (Bioorg Med Chem Lett, 2004) are IC50 and Ki values, retold here.

A word on the IC50: it is the concentration that inhibits the measured activity by half. The Ki is a measure of affinity in units of concentration, obtained from inhibition or displacement. A high value points to weaker binding.

The first test has as its system HEK293. In words: Inhibitory activity against GnRH (5 nM) stimulated [Ca2+] release in transfected cells. Conditions: Homo sapiens. Format: functional, cell-based.
Turning to `Cc1c(-c2ccccc2F)c(=O)n(C[C@H](N)c2ccccc2)c(=O)n1Cc1c(F)cccc1Cl`, the midpoint of inhibition, the IC50, lay at 2.8 nM.

The next test has as its target T1, Gonadotropin-releasing hormone receptor (Homo sapiens, UniProt P30968).
T1 sequence (P30968 whole entry): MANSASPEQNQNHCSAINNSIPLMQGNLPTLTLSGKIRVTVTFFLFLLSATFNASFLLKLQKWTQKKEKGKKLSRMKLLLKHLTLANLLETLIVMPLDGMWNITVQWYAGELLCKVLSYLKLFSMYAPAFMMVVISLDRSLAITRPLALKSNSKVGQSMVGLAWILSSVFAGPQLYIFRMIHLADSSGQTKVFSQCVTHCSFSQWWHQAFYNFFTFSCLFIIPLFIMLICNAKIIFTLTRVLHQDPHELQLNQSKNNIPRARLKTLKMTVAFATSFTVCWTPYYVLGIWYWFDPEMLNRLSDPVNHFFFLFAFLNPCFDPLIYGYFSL
The experiment in a line: Binding affinity towards human gonadotropin-releasing hormone receptor expressed in HEK293 cells using des-Gly10-[125I]Tyr,5 DLeu,6 NMeLeu,7 Pro9-NEt GnRH as radioligand. The test is classed as cell-based.
Settings: not given
`Cc1c(-c2ccccc2F)c(=O)n(C[C@H](N)c2ccccc2)c(=O)n1Cc1c(F)cccc1F` had a Ki of 6 nM.
`Cc1c(-c2ccccc2F)c(=O)n(C[C@H](N)c2ccccc2)c(=O)n1CCc1ccccn1`: the Ki was > 10000 nM.
The same measure, in the same setting: under `Cc1c(-c2ccccc2F)c(=O)n(C[C@H](N)c2ccccc2)c(=O)n1Cc1ccccc1` stands 57 nM.
The compound `COc1ccccc1Cn1c(C)c(-c2ccccc2F)c(=O)n(C[C@H](N)c2ccccc2)c1=O` registered a Ki of 230 nM. Against the preceding compound, the Ki is about 4-fold higher.
Still for that read-out and setting: under `Cc1c(-c2ccccc2F)c(=O)n(C[C@H](N)c2ccccc2)c(=O)n1CC1CC1` stands 1100 nM; under `Cc1c(-c2ccccc2F)c(=O)n(C[C@H](N)c2ccccc2)c(=O)n1CCO`, > 10000 nM; under `Cc1c(-c2ccccc2F)c(=O)n(C[C@H](N)c2ccccc2)c(=O)n1Cc1ccccc1F`, 20 nM.
`Cc1c(-c2ccccc2F)c(=O)n(C[C@H](N)c2ccccc2)c(=O)n1Cc1ccccc1Cl` gave a Ki of 27 nM.
`Cc1c(-c2ccccc2F)c(=O)n(C[C@H](N)c2ccccc2)c(=O)n1Cc1ccc(F)cc1` displayed an inhibition constant Ki of 75 nM.
Compound `CCCCCn1c(C)c(-c2ccccc2F)c(=O)n(C[C@H](N)c2ccccc2)c1=O` gave a Ki of 230 nM.
Still for that read-out and setting: with `Cc1c(-c2ccccc2F)c(=O)n(C[C@H](N)c2ccccc2)c(=O)n1CCN(C)C` the figure was > 10000 nM; with `Cc1c(-c2ccccc2F)c(=O)n(C[C@H](N)c2ccccc2)c(=O)n1CCN1CCNCC1`, > 10000 nM.
For the compound `Cc1c(-c2ccccc2F)c(=O)n(C[C@H](N)c2ccccc2)c(=O)n1CCc1ccccc1`, the Ki was 1000 nM.
`Cc1c(-c2ccccc2F)c(=O)n(C[C@H](N)c2ccccc2)c(=O)n1Cc1c(F)cccc1Cl` gave a Ki of 0.7 nM.
As to `Cc1ccccc1Cn1c(C)c(-c2ccccc2F)c(=O)n(C[C@H](N)c2ccccc2)c1=O`, the Ki stood at 35 nM.
Compound `Cc1c(-c2ccccc2F)c(=O)n(C[C@H](N)c2ccccc2)c(=O)n1C1CCCCC1` showed a Ki of 260 nM.
Turning to `Cc1c(-c2ccccc2F)c(=O)n(C[C@H](N)c2ccccc2)c(=O)n1Cc1ccc(F)cc1Cl`, the Ki came to 33 nM.
For `Cc1c(-c2ccccc2F)c(=O)n(C[C@H](N)c2ccccc2)c(=O)n1Cc1ccccc1C(F)(F)F`, the Ki stood at 4 nM.
Still for that read-out and setting: under `Cc1c(-c2ccccc2F)c(=O)n(C[C@H](N)c2ccccc2)c(=O)n1C(C)c1ccccc1` (some centres not stated) stands 140 nM; under `Cc1c(-c2ccccc2F)c(=O)n(C[C@H](N)c2ccccc2)c(=O)n1CC(C)C`, 500 nM; under `Cc1c(-c2ccccc2F)c(=O)n(C[C@H](N)c2ccccc2)c(=O)n1Cc1cccnc1`, 700 nM.
Same read-out and setting: with `Cc1ccc(Cn2c(C)c(-c3ccccc3F)c(=O)n(C[C@H](N)c3ccccc3)c2=O)o1` the figure was 430 nM.
Still for that read-out and setting: with `Cc1c(-c2ccccc2F)c(=O)n(C[C@H](N)c2ccccc2)c(=O)n1Cc1ccccn1` the figure was 77 nM; with `Cc1c(-c2ccccc2F)c(=O)n(C[C@H](N)c2ccccc2)c(=O)n1Cc1cccc(F)c1`, 67 nM.
On to `COCCn1c(C)c(-c2ccccc2F)c(=O)n(C[C@H](N)c2ccccc2)c1=O`, for which the Ki came to 1700 nM.
The compound `Cc1c(-c2ccccc2F)c(=O)n(C[C@H](N)c2ccccc2)c(=O)n1CC1CCCCC1` came in with a Ki of 200 nM.
